Assay results as given in EP4707280A1, “1,4-CINEOLE DERIVATIVE AND INTERMEDIATE THEREOF, HERBICIDE CONTAINING SAID DERIVATIVE AS ACTIVE INGREDIENT, METHOD FOR USING HERBICIDE, AND METHOD FOR PREPARING AGROCHEMICAL COMPOSITION” (HOKKO CHEMICAL INDUSTRY CO., LTD., priority 2023, dated 2024).

What was measured:
Type in all cases: in vivo
[1] = system: Echinochloa crus-galli var. formosensis; assay: Test Example 1: herbicidal effect test by soil application in paddy rice; conditions: Echinochloa crus-galli, soil, 336 h; 120 g active ingredient per 10 ares; applied immediately after sowing, flooded pots; 14 days after application; read-out: weed inhibition rate
How it was run: (§1)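 Weeds sown 0–1 cm deep (30 seeds each) into fertilized, puddled paddy soil in Wagner pots. Pots are flooded immediately, water held near 3 cm, and the diluted emulsifiable concentrate is dripped in at once, delivering 120 g active ingredient per 10 ares under glass-greenhouse management.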

[2] = system: Scirpus juncoides; assay: as above; conditions: Schoenoplectiella juncoides, soil, 336 h; 120 g active ingredient per 10 ares; applied immediately after sowing, flooded pots; 14 days after application; read-out: weed inhibition rate
How it was run: as §1

[3] = system: Echinochloa crus-galli var. formosensis; assay: Test Example 2: herbicidal effect test by application during growth period of paddy rice; conditions: Echinochloa crus-galli; 120 g per 10 ares; applied seven days after sowing, flooded pots; 14 days after application; read-out: weed inhibition rate
How it was run: (§2)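 Paddy soil in flooded pots (water depth about 3 cm) was sown with weed seeds and kept in a glass greenhouse. Seven days after sowing, a diluted emulsifiable concentrate was applied by dropper at 120 g active ingredient per 10 ares. Weed inhibition was evaluated 14 days after application, in duplicate.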

[4] = system: Scirpus juncoides; assay: as above; conditions: Schoenoplectiella juncoides; 120 g per 10 ares; applied seven days after sowing, flooded pots; 14 days after application; read-out: weed inhibition rate
How it was run: as §2

[5] = system: Digitaria ciliaris; assay: Test Example 3: herbicidal effect test by soil application in upland field; conditions: Digitaria ciliaris, 120 g per 10 ares, sprayed one day after sowing, 14 days after application, read-out: weed inhibition rate
How it was run: (§3)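 Pre-emergence test: seeds mixed into top 1 cm of alluvial loam upland soil in pots; emulsifiable concentrate diluted in water sprayed on soil one day after sowing at 100 L/10 a, 120 g a.i./10 a. Weed inhibition rate (%) scored at 14 days, in duplicate.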

[6] = system: Echinochloa crus-galli; assay: as above; conditions: Echinochloa crus-galli, 120 g per 10 ares, sprayed one day after sowing, 14 days after application, read-out: weed inhibition rate
How it was run: as §3

[7] = system: Digitaria ciliaris; assay: Test Example 4: herbicidal effect test by stem and leaf treatment in upland field; conditions: Digitaria ciliaris; 120 g per 10 ares; sprayed seven days after sowing, upland soil; 14 days after application; read-out: weed inhibition rate
[8] = system: Echinochloa crus-galli; assay: as above; conditions: Echinochloa crus-galli; 120 g per 10 ares; sprayed seven days after sowing, upland soil; 14 days after application; read-out: weed inhibition rate
[9] = system: Echinochloa crus-galli var. formosensis; assay: Test Example 5: herbicidal effect test by soil application in paddy rice (low dose); conditions: Echinochloa crus-galli, soil, 336 h; 7.5 g per 10 ares; applied immediately after sowing, flooded pots; 14 days after application; read-out: weed inhibition rate
How it was run: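 Paddy-soil pots, weeds sown 0–1 cm deep and flooded to about 3 cm in a greenhouse. Emulsifiable concentrate diluted in water and dropped in right after sowing at 7.5 g active ingredient per 10 ares. Duplicates; effect scored 14 days after application.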

[10] = system: Echinochloa crus-galli var. formosensis; assay: Test Example 6: herbicidal effect test by application during growth period of paddy rice (low dose); conditions: Echinochloa crus-galli; 7.5 g per 10 ares; applied seven days after sowing, flooded pots; 14 days after application; read-out: weed inhibition rate
How it was run: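 Paddy-soil pots, flooded ~3 cm after sowing weed seeds at 0-1 cm depth, greenhouse-grown. Seven days after sowing, diluted emulsifiable concentrate applied by dropper at 7.5 g active ingredient per 10 ares. Weed inhibition rate (%) scored 14 days after application, in duplicate.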

[11] = system: Digitaria ciliaris; assay: Test Example 7: herbicidal effect test by soil application in upland field (low dose); conditions: Digitaria ciliaris, 7.5 g per 10 ares, sprayed one day after sowing, 14 days after application, read-out: weed inhibition rate
How it was run: (§4)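 Upland alluvial loam pots, seeds mixed into top 1 cm of soil; one day after sowing, diluted emulsifiable concentrate sprayed on soil at 100 L/10 a, giving 7.5 g active ingredient/10 a. Duplicate pots; weed inhibition rate (%) scored 14 days after application.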

[12] = system: Echinochloa crus-galli; assay: as above; conditions: Echinochloa crus-galli, 7.5 g per 10 ares, sprayed one day after sowing, 14 days after application, read-out: weed inhibition rate
How it was run: as §4

[13] = system: Digitaria ciliaris; assay: Test Example 8: herbicidal effect test by stem and leaf treatment in upland field (low dose); conditions: Digitaria ciliaris; 7.5 g per 10 ares; sprayed seven days after sowing, upland soil; 14 days after application; read-out: weed inhibition rate
[14] = system: Echinochloa crus-galli; assay: as above; conditions: Echinochloa crus-galli; 7.5 g per 10 ares; sprayed seven days after sowing, upland soil; 14 days after application; read-out: weed inhibition rate

CC(C)=CCO[C@@H]1C[C@]2(C(C)C)O[C@@]1(C)C[C@@H]2Cl [1-612, (1R,2S,4S,5R)-2-chloro-1-isopropyl-4-methyl-5-(3-methylbut-2-enoxy)-7-oxabicyclo[2.2.1]heptane]
≥ 80%: pest or weed control at 1200 g/ha [1] | pest or weed control at 1200 g/ha [2] | inhibition at 1200 g/ha [3] | inhibition at 1200 g/ha [4] | inhibition at 1200 g/ha [5] | inhibition at 1200 g/ha [6] | inhibition at 1200 g/ha [7] | inhibition at 1200 g/ha [8] | inhibition at 75 g/ha [9] | inhibition at 75 g/ha [10] | inhibition at 75 g/ha [11] | inhibition at 75 g/ha [12] | inhibition at 75 g/ha [13] | inhibition at 75 g/ha [14]

CC(C)[C@]12C[C@@H](OCc3c(F)cccc3Br)[C@](C)(C[C@@H]1Cl)O2 [1-1613, (1R,2S,4S,5R)-5-[(2-bromo-6-fluoro-phenyl)methoxy]-2-chloro-1-isopropyl-4-methyl-7-oxabicyclo[2.2.1]heptane]
≥ 80%: pest or weed control at 1200 g/ha [1] | pest or weed control at 1200 g/ha [2] | inhibition at 1200 g/ha [3] | inhibition at 1200 g/ha [4] | inhibition at 1200 g/ha [5] | inhibition at 1200 g/ha [6] | inhibition at 1200 g/ha [7] | inhibition at 1200 g/ha [8] | inhibition at 75 g/ha [9] | inhibition at 75 g/ha [10] | inhibition at 75 g/ha [11] | inhibition at 75 g/ha [12] | inhibition at 75 g/ha [13] | inhibition at 75 g/ha [14]

CC(C)C12CC(OCc3ccccc3)C(C)(CC1Br)O2 (stereo not shown) [1-1342, 5-bromo-1-methyl-2-phenylmethoxy-4-isopropyl-7-oxabicyclo[2.2.1]heptane]
≥ 80%: pest or weed control at 1200 g/ha [1] | pest or weed control at 1200 g/ha [2] | inhibition at 1200 g/ha [3] | inhibition at 1200 g/ha [4] | inhibition at 1200 g/ha [5] | inhibition at 1200 g/ha [6] | inhibition at 1200 g/ha [7] | inhibition at 1200 g/ha [8] | inhibition at 75 g/ha [9] | inhibition at 75 g/ha [10] | inhibition at 75 g/ha [11] | inhibition at 75 g/ha [12] | inhibition at 75 g/ha [13] | inhibition at 75 g/ha [14]

CC(C)C12CC(OCc3ccccc3Cl)C(C)(CC1Cl)O2 (stereo not shown) [1-1292, 5-chloro-2-[(2-chlorophenyl)methoxy]-1-methyl-4-isopropyl-7-oxabicyclo[2.2.1]heptane]
≥ 80%: pest or weed control at 1200 g/ha [1] | pest or weed control at 1200 g/ha [2] | inhibition at 1200 g/ha [3] | inhibition at 1200 g/ha [4] | inhibition at 1200 g/ha [5] | inhibition at 1200 g/ha [6] | inhibition at 1200 g/ha [7] | inhibition at 1200 g/ha [8] | inhibition at 75 g/ha [9] | inhibition at 75 g/ha [10] | inhibition at 75 g/ha [11] | inhibition at 75 g/ha [12] | inhibition at 75 g/ha [13] | inhibition at 75 g/ha [14]

CO[C@H]1C[C@]2(C)O[C@@]1(C(C)C)C[C@H]2OCc1ccccc1 [1-150, (1R,2S,4S,5R)-5-benzyloxy-1-isopropyl-2-methoxy-4-methyl-7-oxabicyclo[2.2.1]heptane]
≥ 80%: pest or weed control at 1200 g/ha [1] | pest or weed control at 1200 g/ha [2] | inhibition at 1200 g/ha [3] | inhibition at 1200 g/ha [4] | inhibition at 1200 g/ha [5] | inhibition at 1200 g/ha [6] | inhibition at 1200 g/ha [7] | inhibition at 1200 g/ha [8] | inhibition at 75 g/ha [9] | inhibition at 75 g/ha [10] | inhibition at 75 g/ha [11] | inhibition at 75 g/ha [12] | inhibition at 75 g/ha [13] | inhibition at 75 g/ha [14]
